Reference: US20090054312A1, “SMIPs: Small molecule inhibitors of p27 depletion in cancers and other proliferative diseases” (priority 2007, published 2009)
Counter-ions that a name gives are not always drawn.

Test system: p27 levels in LNCaP-S14 cells
Experiment: p27 immunofluorescence screening assay in LNCaP-S14 cells; further: test concentration or dose not given here
Conditions: cell line not given; for % positive: p27-positive cells; for Z score: Table 1, standard deviations from plate mean
[1] = Table 1, compounds showing SMIP activity in the secondary screen

SMILES | % positive [1] [%] | Z score | % positive ([…]) [%]
CC(C)COCC(CN(Cc1ccccc1)c1ccccc1)N1CCCC1 (stereo not drawn) [Bepridil hydrochloride, reference compound] | 8.54 | 2.9020 | 
Clc1ccc(CSC(Cn2ccnc2)c2ccc(Cl)cc2Cl)cc1 (stereo not drawn) [Sulconazole nitrate, reference compound] | 19.81 | 11.0719 | 
CC[C@@]1(O)C[C@H](O[C@H]2C[C@H](N(C)C)[C@H](O[C@H]3C[C@H](O)[C@H](O[C@H]4CCC(=O)[C@H](C)O4)[C@H](C)O3)[C@H](C)O2)c2c(cc3c(c2O)C(=O)c2c(O)cccc2C3=O)[C@H]1C(=O)OC [Aclarubicin, reference compound] |  | 4.5990 | 10.89
Cc1cc2c(C(C)C)c(O)c(O)c(C=O)c2c(O)c1-c1c(C)cc2c(C(C)C)c(O)c(O)c(C=O)c2c1O [Gossypol, reference compound] |  | 3.1932 | 8.94
CN(C)c1ccc(O)c2c1C[C@H]1C[C@H]3[C@H](N(C)C)C(O)=C(C(N)=O)C(=O)[C@@]3(O)C(O)=C1C2=O [Minocycline hydrochloride, reference compound] | 46.17 | 30.1696 | 
CCOC(=O)c1cc2cccc(NC(=O)c3ccccc3OC(C)=O)c2[nH]1 [7-[(2-acetoxybenzoyl)amino]-1H-indole-2-carboxylic acid, ethyl ester] | 51.60 | 34.1083 | 
CC(=O)Nc1ccc(S(=O)(=O)N(Cc2ccc3c(c2)CCO3)C2CC2)cc1 [N-(4-{[cyclopropyl(2,3-dihydro-1-benzofuran-5-ylmethyl)amino]sulfonyl}phenyl)acetamide] | 14.84 | 7.4706 | 
O=C(CSC1=NNC(c2ccccn2)S1)c1cccc(F)c1 (stereo not drawn) [1-(3-fluorophenyl)-2-[(5-pyridin-2-yl-4,5-dihydro-1,3,4-thiadiazol-2-yl)sulfanyl]ethanone] | 25.37 | 15.1024 | 
Cc1cccn2c(=O)c3c(nc12)CCN(C(=O)c1ccc(C(C)(C)C)cc1)C3 [2-(4-tert-butylbenzoyl)-6-methyl-1,2,3,4-tetrahydro-11H-dipyrido-[1,2-a:4′,3′-d]pyrimidin-11-one] | 19.38 | 10.7588 | 
CC[C@@]1(O)C(=O)OCc2c1cc1n(c2=O)Cc2cc3ccccc3nc2-1 [Camptothecin, reference compound] | 37.17 | 23.6514 | 
O=C1C(Cl)=C(N2CCC(C(=O)N3CCOCC3)CC2)C(=O)c2ccccc21 [3-chloro-2-[4-(morpholine-4-carbonyl)-1-piperidyl]naphthalene-1,4-dione] | 12.42 | 5.7130 | 
CC[C@@H](C(=O)[C@@H](C)[C@@H](O)[C@H](C)CCc1ccc(C)c(O)c1C(=O)O)[C@H]1O[C@](CC)([C@H]2CC[C@](O)(CC)[C@H](C)O2)C[C@@H]1C [Lasalocid sodium, reference compound] | 45.21 | 29.4743 | 
CCC(=O)N(Cc1cccc(Cl)c1)c1ccc2[nH]c(C(C)(C)C)cc2c1 [N-(2-tert-butyl-(1H)-indol-5-yl)-N-(3-chlorobenzyl)propanamide] | 33.19 | 20.7674 | 
CCC1(C2OC(C3OC(O)(CO)C(C)CC3C)CC2C)CCC(C2(C)CCC3(CC(O)C(C)C(C(C)C(OC)C(C)C(=O)[O-])O3)O2)O1.[Na+] (stereo not drawn) [Monensin, sodium salt, sodium 4-[2-[5-ethyl-5-[5-[6-hydroxy-6-(hydroxymethyl)-3,5-dimethyl-oxan-2-yl]-3-methyl-oxolan-2-yl]oxolan-2-yl]-9-hydroxy-2,8-dimethyl-1,6-dioxaspiro[4.5]decan-7-yl)-3-methoxy-2-methyl-pentanoate, reference compound] |  | 33.5974 | 50.90
COc1ccc(S(=O)(=O)Nc2ccc3[nH]c(C(C)(C)C)cc3c2)cc1 [N-(2-tert-butyl-(1H)-indol-5-yl)-4-methoxybenzenesulfonamide] | 29.15 | 17.8415 | 
